Where a SMILES comes first, the peptide text is derived from it. Where no end group is shown, it is not given here. The star is where a group is joined. For = O=C*
Test system: differentiated HL-60 cells
Assay type: cell-based, human
Conditions: 72 h
Protocol: HEK-293 cells (American Type Culture Collection, Manassas, VA, USA) were maintained in DMEM (Thermo Fisher Scientific, Waltham, MA, USA) containing 10% FBS (Thermo Fisher Scientific) in a humidified atmosphere at 5% CO2 and 37 °C. Human acute leukemia-derived HL-60 cells (RIKEN Cell Bank, Ibaraki, Japan) were cultured in RPMI-1640 medium (Thermo Fisher Scientific) containing 10% FBS in a humidified atmosphere at 5% CO2 and 37 °C. HL-60 cells were treated with 500 μM dibutyryl-cAMP (Sigma-Aldrich, St. Louis, MO, USA) for 72 h to differentiate the cells into neutrophilic/granulocytic cells as described elsewhere. The ability of MCT-2-related peptides to activate HL-60 cells differentiated into neutrophilic/granulocytic cells was evaluated by stimulation of β-hexosaminidase secretion from the cells. Briefly, differentiated HL-60 cells were washed 3 times with ice-cold HEPES-buffered Hank’s solution (HBHS; 10 mM HEPES, 136.9 mM NaCl, 5.4 mM KCl, 1.2 mM CaCl2, 0.44 mM KH2PO4, 0.49 mM MgCl2, 0.41 mM MgSO4, 0.34 mM Na2HPO4, 5.5 mM glucose, 4.2 mM NaHCO3, and 0.1% BSA, pH 7.4). The cells were resuspended in HBHS at a density of 5.6 × 10^6 cells/mL, and DNase I (Sigma-Aldrich) and cytochalasin B (Sigma-Aldrich) were each added at a final concentration of 5 μg/mL. The cell suspension in each tube (5.0 × 10^5 cells/90 μL) was preincubated at 37 °C for 10 min and stimulated with 10 μL synthetic peptide solution at 37 °C for 10 min. The inhibitory effects of inhibitors against FPR1 [CysH (Sigma-Aldrich)] and FPR2 [PBP10 (Tocris Bioscience, Bristol, UK)] on β-hexosaminidase release induced by MCT-2 and its derivatives were also evaluated in the differentiated HL-60 cells; each cell suspension prepared as above (90 μL) was transferred to a tube (5.0 × 10^5 cells/tube) with 5 μL inhibitor solution for FPR1 (CysH) or FPR2 (PBP10). Each tube was then preincubated at 37 °C for 10 min and stimulated with 5 μL synthetic peptide solution at 37 °C for 10 min. After stimulation, 200 μL ice-cold reaction quenching buffer (25 mM Tris, 123 mM NaCl, and 2.7 mM KCl, pH 7.4) was added to each cell suspension to stop the reaction. Thereafter, these tubes were centrifuged at 4 °C and 2300× g for 1 min, and each supernatant was transferred into a new tube. β-Hexosaminidase activity in the supernatant was measured as described previously. Briefly, 90 μL supernatant was transferred to each well of a 96-well microtiter plate, and 60 μL of a substrate solution for β-hexosaminidase [10 mM p-nitrophenyl N-acetyl-β-D-glucosaminide (Sigma-Aldrich), 40 mM citrate, and 70 mM NaHPO4, pH 4.5] was added to initiate the enzyme reaction. After incubation of the plate at 37 °C for 1 h, 100 μL of 400 mM glycine (pH 10.7) was added to stop the reaction. The absorbance at 415 nm for the resulting p-nitrophenol and at 490 nm for the reference was measured using a microtiter plate reader (Viento XS; BioTek Instruments, Winooski, VT, USA). The ability of each peptide to induce β-hexosaminidase release was expressed as a percentage of enzyme secretion promoted by 10 μM MCT-2(1–15) that induced the maximum response for the elucidation of full or partial agonists to the activity of MCT-2(1–15) (Figure 2 and Figure 4, Table 2) or a percentage of the total enzyme activity, which was the enzyme activity released after disruption of the cells with 0.05% Triton X-100 (Figure 3).

Row | Compound | EC50
1 | CC[C@H](C)[C@H](NC(=O)[C@H](C)NC(=O)[C@H](CCCCN)NC(=O)[C@H](CCSC)NC(=O)[C@H](CC(C)C)NC(=O)[C@@H]1CCCN1C(=O)[C@H](CC(N)=O)NC(=O)[C@@H](NC(=O)[C@H](CCCCN)NC(=O)[C@H](CCCNC(=N)N)NC(=O)[C@H](CCSC)NC(=O)[C@@H]1CCCN1C(=O)[C@@H](NC(=O)[C@H](CCSC)NC=O)[C@@H](C)O)[C@@H](C)CC)C(=O)N[C@@H](CC(N)=O)C(=O)O [[Ala^13]MCT-2] (For-MTPMRKINPLMKAIN-OH) | 0.0837 ± 0.00354 µM
2 | CC[C@H](C)[C@H](NC(=O)[C@H](CCCCN)NC(=O)[C@H](CCCNC(=N)N)NC(=O)[C@H](CCSC)NC(=O)[C@@H]1CCCN1C(=O)[C@@H](NC(=O)[C@H](CCSC)NC=O)[C@@H](C)O)C(=O)O [MCT-2(1–7)] (For-MTPMRKI-OH) | 35.5 µM
3 | CSCC[C@H](NC=O)C(=O)N[C@H](C(=O)N1CCC[C@H]1C(=O)N[C@@H](CCSC)C(=O)N[C@@H](CCCNC(=N)N)C(=O)O)[C@@H](C)O [MCT-2(1–5)] (For-MTPMR-OH) | 26 µM
4 | CC[C@H](C)[C@H](NC(=O)[C@H](CCCCN)NC(=O)[C@H](CCCNC(=N)N)NC(=O)[C@H](CCSC)NC(=O)[C@@H]1CCCN1C(=O)[C@@H](NC(=O)[C@H](CCSC)NC=O)[C@@H](C)O)C(=O)N[C@@H](CC(N)=O)C(=O)O [MCT-2(1–8)] (For-MTPMRKIN-OH) | 41.3 µM
5 | CC[C@H](C)[C@H](NC(=O)[C@H](CC(C)C)NC(=O)[C@H](CCCCN)NC(=O)[C@H](CCSC)NC(=O)[C@H](CC(C)C)NC(=O)[C@@H]1CCCN1C(=O)[C@H](CC(N)=O)NC(=O)[C@@H](NC(=O)[C@H](CCCCN)NC(=O)[C@H](CCCNC(=N)N)NC(=O)[C@H](CCSC)NC(=O)[C@@H]1CCCN1C(=O)[C@@H](NC(=O)[C@H](C)NC=O)[C@@H](C)O)[C@@H](C)CC)C(=O)N[C@@H](CC(N)=O)C(=O)O [[Ala^1]MCT-2] (For-ATPMRKINPLMKLIN-OH) | > 10 µM
6 | CC[C@H](C)[C@H](NC(=O)[C@H](CCCCN)NC(=O)[C@H](CCCNC(=N)N)NC(=O)[C@H](CCSC)NC(=O)[C@@H]1CCCN1C(=O)[C@@H](NC(=O)[C@H](CCSC)NC=O)[C@@H](C)O)C(=O)N[C@@H](C)C(=O)N1CCC[C@H]1C(=O)N[C@@H](CC(C)C)C(=O)N[C@@H](CCSC)C(=O)N[C@@H](CCCCN)C(=O)N[C@@H](CC(C)C)C(=O)N[C@H](C(=O)N[C@@H](CC(N)=O)C(=O)O)[C@@H](C)CC [[Ala^8]MCT-2] (For-MTPMRKIAPLMKLIN-OH) | 0.031 ± 0.00397 µM
7 | MTPMRKINPLMKLIN [Des-N-formyl MCT-2] | > 1000 µM
8 | CC[C@H](C)[C@H](NC(=O)[C@H](CC(C)C)NC(=O)[C@H](CCCCN)NC(=O)[C@H](CCSC)NC(=O)[C@H](CC(C)C)NC(=O)[C@@H]1CCCN1C(=O)[C@H](CC(N)=O)NC(=O)[C@@H](NC(=O)[C@H](CCCCN)NC(=O)[C@H](CCCNC(=N)N)NC(=O)[C@H](CCSC)NC(=O)[C@@H]1CCCN1C(=O)[C@@H](NC(=O)[C@H](CCSC)NC=O)[C@@H](C)O)[C@@H](C)CC)C(=O)N[C@@H](C)C(=O)O [[Ala^15]MCT-2] (For-MTPMRKINPLMKLIA-OH) | 0.0293 ± 0.00149 µM
9 | CC[C@H](C)[C@H](NC(=O)[C@H](CC(C)C)NC(=O)[C@H](CCCCN)NC(=O)[C@H](CCSC)NC(=O)[C@H](CC(C)C)NC(=O)[C@@H]1CCCN1C(=O)[C@H](CC(N)=O)NC(=O)[C@@H](NC(=O)[C@H](CCCCN)NC(=O)[C@H](C)NC(=O)[C@H](CCSC)NC(=O)[C@@H]1CCCN1C(=O)[C@@H](NC(=O)[C@H](CCSC)NC=O)[C@@H](C)O)[C@@H](C)CC)C(=O)N[C@@H](CC(N)=O)C(=O)O [[Ala^5]MCT-2] (For-MTPMAKINPLMKLIN-OH) | 0.0613 ± 0.00058 µM
10 | CC[C@H](C)[C@H](NC(=O)[C@H](CC(C)C)NC(=O)[C@H](CCCCN)NC(=O)[C@H](C)NC(=O)[C@H](CC(C)C)NC(=O)[C@@H]1CCCN1C(=O)[C@H](CC(N)=O)NC(=O)[C@@H](NC(=O)[C@H](CCCCN)NC(=O)[C@H](CCCNC(=N)N)NC(=O)[C@H](CCSC)NC(=O)[C@@H]1CCCN1C(=O)[C@@H](NC(=O)[C@H](CCSC)NC=O)[C@@H](C)O)[C@@H](C)CC)C(=O)N[C@@H](CC(N)=O)C(=O)O [[Ala^11]MCT-2] (For-MTPMRKINPLAKLIN-OH) | 0.0367 ± 0.011 µM
11 | CC[C@H](C)[C@H](NC(=O)[C@H](CCCCN)NC(=O)[C@H](CCCNC(=N)N)NC(=O)[C@H](CCSC)NC(=O)[C@@H]1CCCN1C(=O)[C@@H](NC(=O)[C@H](CCSC)NC=O)[C@@H](C)O)C(=O)N[C@@H](CC(N)=O)C(=O)N1CCC[C@H]1C(=O)N[C@@H](CC(C)C)C(=O)N[C@@H](CCSC)C(=O)N[C@@H](CCCCN)C(=O)N[C@@H](CC(C)C)C(=O)N[C@@H](C)C(=O)N[C@@H](CC(N)=O)C(=O)O [[Ala^14]MCT-2] (For-MTPMRKINPLMKLAN-OH) | 0.0767 ± 0.0119 µM
12 | CC[C@H](C)[C@H](NC(=O)[C@H](CC(C)C)NC(=O)[C@H](CCCCN)NC(=O)[C@H](CCSC)NC(=O)[C@H](CC(C)C)NC(=O)[C@@H]1CCCN1C(=O)[C@H](CC(N)=O)NC(=O)[C@@H](NC(=O)[C@H](CCCCN)NC(=O)[C@H](CCCNC(=N)N)NC(=O)[C@H](C)NC(=O)[C@@H]1CCCN1C(=O)[C@@H](NC(=O)[C@H](CCSC)NC=O)[C@@H](C)O)[C@@H](C)CC)C(=O)N[C@@H](CC(N)=O)C(=O)O [[Ala^4]MCT-2] (For-MTPARKINPLMKLIN-OH) | 0.068 ± 0.00265 µM
13 | CC[C@H](C)[C@H](NC(=O)[C@H](CC(C)C)NC(=O)[C@H](CCCCN)NC(=O)[C@H](CCSC)NC(=O)[C@H](CC(C)C)NC(=O)[C@@H]1CCCN1C(=O)[C@H](CC(N)=O)NC(=O)[C@@H](NC(=O)[C@H](CCCCN)NC(=O)[C@H](CCCNC(=N)N)NC(=O)[C@H](CCSC)NC(=O)[C@@H]1CCCN1C(=O)[C@@H](NC(=O)[C@H](CCSC)NC=O)[C@@H](C)O)[C@@H](C)CC)C(=O)O [MCT-2(1–14)] (For-MTPMRKINPLMKLI-OH) | 0.0967 ± 0.0176 µM
14 | CC[C@H](C)[C@H](NC(=O)[C@H](C)NC(=O)[C@H](CCCNC(=N)N)NC(=O)[C@H](CCSC)NC(=O)[C@@H]1CCCN1C(=O)[C@@H](NC(=O)[C@H](CCSC)NC=O)[C@@H](C)O)C(=O)N[C@@H](CC(N)=O)C(=O)N1CCC[C@H]1C(=O)N[C@@H](CC(C)C)C(=O)N[C@@H](CCSC)C(=O)N[C@@H](CCCCN)C(=O)N[C@@H](CC(C)C)C(=O)N[C@H](C(=O)N[C@@H](CC(N)=O)C(=O)O)[C@@H](C)CC [[Ala^6]MCT-2] (For-MTPMRAINPLMKLIN-OH) | 0.064 ± 0.003 µM
15 | CC[C@H](C)[C@H](NC(=O)[C@H](CCCCN)NC(=O)[C@H](CCCNC(=N)N)NC(=O)[C@H](CCSC)NC(=O)[C@@H]1CCCN1C(=O)[C@@H](NC(=O)[C@H](CCSC)NC=O)[C@@H](C)O)C(=O)N[C@@H](CC(N)=O)C(=O)N1CCC[C@H]1C(=O)N[C@@H](CC(C)C)C(=O)N[C@@H](CCSC)C(=O)N[C@@H](CCCCN)C(=O)N[C@@H](CC(C)C)C(=O)O [MCT-2(1–13)] (For-MTPMRKINPLMKL-OH) | 0.186 ± 0.0336 µM
16 | CC[C@H](C)[C@H](NC(=O)[C@H](CC(C)C)NC(=O)[C@H](CCCCN)NC(=O)[C@H](CCSC)NC(=O)[C@H](CC(C)C)NC(=O)[C@@H]1CCCN1C(=O)[C@H](CC(N)=O)NC(=O)[C@H](C)NC(=O)[C@H](CCCCN)NC(=O)[C@H](CCCNC(=N)N)NC(=O)[C@H](CCSC)NC(=O)[C@@H]1CCCN1C(=O)[C@@H](NC(=O)[C@H](CCSC)NC=O)[C@@H](C)O)C(=O)N[C@@H](CC(N)=O)C(=O)O [[Ala^7]MCT-2] (For-MTPMRKANPLMKLIN-OH) | 0.0947 ± 0.00321 µM
17 | CC[C@H](C)[C@H](NC(=O)[C@H](CCCCN)NC(=O)[C@H](CCCNC(=N)N)NC(=O)[C@H](CCSC)NC(=O)[C@@H]1CCCN1C(=O)[C@@H](NC(=O)[C@H](CCSC)NC=O)[C@@H](C)O)C(=O)N[C@@H](CC(N)=O)C(=O)N1CCC[C@H]1C(=O)N[C@@H](CC(C)C)C(=O)N[C@@H](CCSC)C(=O)N[C@@H](CCCCN)C(=O)O [MCT-2(1–12)] (For-MTPMRKINPLMK-OH) | 0.633 ± 0.153 µM

From paper PMC8071274 (International Journal of Molecular Sciences, 2021)
